The source of these data is US11744825B2, “Methods of treating hypersensitive cough or itching using ion channel inhibitory compounds” (AFASCI, Inc., priority 2018, dated 2023).

One experiment concerns the target hNav1.5 (Homo sapiens, UniProt Q14524). The experiment in a line: Recombinant hNav1.5 channel expressed in mammalian cells. It is filed as cell-based. The text has this:
(§1) A representative panel of AFA/EX compounds was investigated on a variety of recombinant human ion channels expressed in mammalian cells and on native ion channels in dissociated rat dorsal root ganglion (DRG) neurons. […] Thus, this panel of compounds was next investigated on their effects on itching scratching behavior in two well-established itching models in mice.

In a further experiment the test system is IK in rat DRG. Kind of experiment: Inhibition of IK current in dissociated rat DRG neurons. Type of experiment: cell-based. Conditions: for IC50: rat DRG neurons, read-out: Inhibition of Currents in rat DRG: IK IC50; for K/T: ratio of IK IC50 to T-type IC50.
Text: as §1

Another experiment relates to INa in rat DRG. Kind of experiment: Inhibition of INa current in dissociated rat DRG neurons. Type of experiment: cell-based. The conditions noted are these: for IC50: rat DRG neurons, read-out: Inhibition of Currents in rat DRG: INa IC50; for Na/T: ratio of INa IC50 to T-type IC50.
Text: as §1

Another experiment deals with hCav1.2 (Homo sapiens, UniProt Q13936). Kind of experiment: Recombinant hCav1.2 channel expressed in mammalian cells. It is filed as cell-based.
Text: as §1

Another experiment concerns hiPSC INa. Kind of experiment: hiPSC INa current. It is filed as cell-based, human.
For a further experiment, the target named is hCav2.2 (Homo sapiens, UniProt Q00975). The experiment in a line: Recombinant hCav2.2 channel expressed in mammalian cells. It is filed as cell-based. Conditions: recombinant human channel.
Text: as §1

A further experiment deals with T1, T current in rat DRG (Rattus norvegicus, UniProt Q9EQ60).
T1 construct: native ion channels in dissociated rat dorsal root ganglion (DRG) neurons; from tissue; host or cells: dissociated rat dorsal root ganglion neurons
Kind of experiment: Inhibition of T current in dissociated rat DRG neurons. Type of experiment: cell-based. The conditions noted are these: read-out: Inhibition of Currents in rat DRG: T IC50.
Text: as §1

The test system of experiment [1] is chloroquine-induced itching. The experiment in a line: Chloroquine-induced itching (neck model of itch) in mice. Type of experiment: in vivo, mouse. The conditions noted are these: 30 mg/kg i.p., 30 min before pruritogen. Here is the method: (§2) Neck model of itch was employed. Mice (C57BL/6, male, 3-4 months old) were shaved at the nape of the neck 2-3 days before experiments. On the day of behavioral testing mice were individually placed in small plastic chambers (12 cm L×9.5 W×12 H) that inserted into an ordinary homecage at least 30 min for habituation and recorded baseline of behavior using a video camera and a piezoelectric floor sensor operated by a validated homecage behavioral monitory system, SmartCage, which can monitor multiple mouse scratching behaviors simultaneously. Treatment with an individual test article (10 representative AFA-compounds, each at 30 mg/kg) or vehicle (0.5% hydroxyl propyl cellulose aqueous solution containing 2% DMSO) were intraperitoneally (i.p.) injected 30 min prior to itching induction. Mice were given an intradermal injection of 50 μl of a pruritogen, chloroquine or histamine into the nape of the neck. Immediately after the injection, mice were returned to their chambers and were continually recorded by the piezoelectric floor sensor for 30 min. Human manual scoring of itching scratch behavior in real-time and confirmed by video and/or piezoelectric recordings offline. The itch behavior was quantified by counting the number of scratches in a blinded to the treatment manner. A scratch was counted when a mouse lifted its hindpaw to scratch the shaved region and returned the paw to the floor or to the mouth for licking. The piezoelectric signals with a larger and regular waveform distinguished from normal homecage activity were analyzed off-line to objectively quantifying scratch episodes and durations.

The target in another experiment is T2, hCav3.2 Channel (Homo sapiens, UniProt O95180).
T2 construct: expressed in transfected cells
T2 sequence (O95180 whole entry): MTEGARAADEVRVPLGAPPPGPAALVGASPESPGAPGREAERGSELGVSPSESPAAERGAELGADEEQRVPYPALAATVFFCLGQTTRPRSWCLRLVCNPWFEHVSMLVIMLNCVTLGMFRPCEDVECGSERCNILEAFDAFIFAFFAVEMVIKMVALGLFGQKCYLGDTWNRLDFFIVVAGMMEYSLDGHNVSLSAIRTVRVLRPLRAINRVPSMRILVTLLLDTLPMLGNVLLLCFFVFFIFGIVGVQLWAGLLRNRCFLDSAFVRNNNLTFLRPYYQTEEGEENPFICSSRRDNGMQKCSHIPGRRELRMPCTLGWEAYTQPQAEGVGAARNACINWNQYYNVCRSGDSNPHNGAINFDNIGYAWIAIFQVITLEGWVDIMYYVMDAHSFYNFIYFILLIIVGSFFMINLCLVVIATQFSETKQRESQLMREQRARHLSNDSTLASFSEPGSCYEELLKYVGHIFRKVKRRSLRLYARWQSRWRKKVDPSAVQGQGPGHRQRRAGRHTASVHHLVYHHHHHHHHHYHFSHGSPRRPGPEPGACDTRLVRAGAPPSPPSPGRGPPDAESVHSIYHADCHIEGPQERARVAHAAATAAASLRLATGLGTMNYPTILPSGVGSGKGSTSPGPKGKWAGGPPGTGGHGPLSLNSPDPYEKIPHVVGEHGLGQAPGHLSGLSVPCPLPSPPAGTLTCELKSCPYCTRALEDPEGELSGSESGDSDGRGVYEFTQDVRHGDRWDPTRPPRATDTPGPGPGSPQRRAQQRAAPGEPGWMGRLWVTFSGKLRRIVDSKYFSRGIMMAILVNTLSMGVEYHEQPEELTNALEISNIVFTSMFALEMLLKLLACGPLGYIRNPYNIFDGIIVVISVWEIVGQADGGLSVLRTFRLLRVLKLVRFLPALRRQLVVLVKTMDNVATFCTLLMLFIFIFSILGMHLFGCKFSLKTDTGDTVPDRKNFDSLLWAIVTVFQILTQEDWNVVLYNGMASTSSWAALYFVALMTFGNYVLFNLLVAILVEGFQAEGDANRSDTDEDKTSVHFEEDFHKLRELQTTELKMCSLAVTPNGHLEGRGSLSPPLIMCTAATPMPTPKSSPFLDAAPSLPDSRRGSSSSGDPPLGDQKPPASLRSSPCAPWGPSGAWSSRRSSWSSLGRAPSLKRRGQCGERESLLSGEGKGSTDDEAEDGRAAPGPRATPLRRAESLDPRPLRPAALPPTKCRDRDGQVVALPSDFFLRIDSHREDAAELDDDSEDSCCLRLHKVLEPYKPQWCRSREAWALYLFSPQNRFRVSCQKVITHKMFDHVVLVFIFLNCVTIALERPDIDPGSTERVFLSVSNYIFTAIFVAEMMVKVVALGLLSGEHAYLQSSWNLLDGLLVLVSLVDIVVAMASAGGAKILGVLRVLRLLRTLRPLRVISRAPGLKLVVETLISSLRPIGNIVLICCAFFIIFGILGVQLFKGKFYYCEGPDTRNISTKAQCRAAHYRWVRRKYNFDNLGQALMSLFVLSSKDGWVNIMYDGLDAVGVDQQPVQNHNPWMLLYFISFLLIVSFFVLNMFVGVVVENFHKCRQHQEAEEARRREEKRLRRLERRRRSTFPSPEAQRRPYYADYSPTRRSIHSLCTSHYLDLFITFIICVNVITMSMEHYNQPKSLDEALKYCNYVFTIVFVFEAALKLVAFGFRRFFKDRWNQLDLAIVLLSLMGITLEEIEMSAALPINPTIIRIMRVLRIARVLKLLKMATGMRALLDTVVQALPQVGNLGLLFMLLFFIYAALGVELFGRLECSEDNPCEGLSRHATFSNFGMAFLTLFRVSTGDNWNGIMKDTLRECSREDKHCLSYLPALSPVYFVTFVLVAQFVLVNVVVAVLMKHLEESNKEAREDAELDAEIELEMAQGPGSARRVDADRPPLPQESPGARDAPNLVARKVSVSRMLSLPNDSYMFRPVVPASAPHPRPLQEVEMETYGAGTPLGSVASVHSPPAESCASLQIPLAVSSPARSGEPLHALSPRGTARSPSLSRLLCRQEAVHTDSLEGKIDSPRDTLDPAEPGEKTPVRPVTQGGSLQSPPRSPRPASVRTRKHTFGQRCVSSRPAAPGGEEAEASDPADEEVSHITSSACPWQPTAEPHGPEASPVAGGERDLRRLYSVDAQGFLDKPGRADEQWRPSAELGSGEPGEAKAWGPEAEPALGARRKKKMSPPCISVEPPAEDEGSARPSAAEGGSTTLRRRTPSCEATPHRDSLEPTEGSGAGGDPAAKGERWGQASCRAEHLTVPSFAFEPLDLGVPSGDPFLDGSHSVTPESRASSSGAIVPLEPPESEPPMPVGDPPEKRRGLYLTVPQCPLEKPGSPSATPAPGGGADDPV
The experiment in a line: Recombinant hCav3.2 channel expressed in mammalian cells. Further details: hCav3.2 Channel % Use Dep. (use dependent inhibition): concentration or dose not given beside the values. It is filed as cell-based.
Text: as §1

The target of experiment [2] is T3, hERG potassium (K+) channels (Homo sapiens, UniProt Q12809).
T3 construct: expressed in transfected cells
The experiment in a line: hERG potassium channel inhibition. Type of experiment: cell-based.
Text: as §1

The subject of experiment [3] is histamine-induced itching. Kind of experiment: Histamine-induced itching (neck model of itch) in mice. Type of experiment: in vivo, mouse. Conditions: 30 mg/kg i.p., 30 min before pruritogen. The method, then:
as §2

A further experiment relates to T-type Ca2+ current. Conditions: Avdonin et al., 2000; cited from earlier work.

Molecules are shown by their SMILES.

Sequence of hNav1.5 (Q14524 whole entry): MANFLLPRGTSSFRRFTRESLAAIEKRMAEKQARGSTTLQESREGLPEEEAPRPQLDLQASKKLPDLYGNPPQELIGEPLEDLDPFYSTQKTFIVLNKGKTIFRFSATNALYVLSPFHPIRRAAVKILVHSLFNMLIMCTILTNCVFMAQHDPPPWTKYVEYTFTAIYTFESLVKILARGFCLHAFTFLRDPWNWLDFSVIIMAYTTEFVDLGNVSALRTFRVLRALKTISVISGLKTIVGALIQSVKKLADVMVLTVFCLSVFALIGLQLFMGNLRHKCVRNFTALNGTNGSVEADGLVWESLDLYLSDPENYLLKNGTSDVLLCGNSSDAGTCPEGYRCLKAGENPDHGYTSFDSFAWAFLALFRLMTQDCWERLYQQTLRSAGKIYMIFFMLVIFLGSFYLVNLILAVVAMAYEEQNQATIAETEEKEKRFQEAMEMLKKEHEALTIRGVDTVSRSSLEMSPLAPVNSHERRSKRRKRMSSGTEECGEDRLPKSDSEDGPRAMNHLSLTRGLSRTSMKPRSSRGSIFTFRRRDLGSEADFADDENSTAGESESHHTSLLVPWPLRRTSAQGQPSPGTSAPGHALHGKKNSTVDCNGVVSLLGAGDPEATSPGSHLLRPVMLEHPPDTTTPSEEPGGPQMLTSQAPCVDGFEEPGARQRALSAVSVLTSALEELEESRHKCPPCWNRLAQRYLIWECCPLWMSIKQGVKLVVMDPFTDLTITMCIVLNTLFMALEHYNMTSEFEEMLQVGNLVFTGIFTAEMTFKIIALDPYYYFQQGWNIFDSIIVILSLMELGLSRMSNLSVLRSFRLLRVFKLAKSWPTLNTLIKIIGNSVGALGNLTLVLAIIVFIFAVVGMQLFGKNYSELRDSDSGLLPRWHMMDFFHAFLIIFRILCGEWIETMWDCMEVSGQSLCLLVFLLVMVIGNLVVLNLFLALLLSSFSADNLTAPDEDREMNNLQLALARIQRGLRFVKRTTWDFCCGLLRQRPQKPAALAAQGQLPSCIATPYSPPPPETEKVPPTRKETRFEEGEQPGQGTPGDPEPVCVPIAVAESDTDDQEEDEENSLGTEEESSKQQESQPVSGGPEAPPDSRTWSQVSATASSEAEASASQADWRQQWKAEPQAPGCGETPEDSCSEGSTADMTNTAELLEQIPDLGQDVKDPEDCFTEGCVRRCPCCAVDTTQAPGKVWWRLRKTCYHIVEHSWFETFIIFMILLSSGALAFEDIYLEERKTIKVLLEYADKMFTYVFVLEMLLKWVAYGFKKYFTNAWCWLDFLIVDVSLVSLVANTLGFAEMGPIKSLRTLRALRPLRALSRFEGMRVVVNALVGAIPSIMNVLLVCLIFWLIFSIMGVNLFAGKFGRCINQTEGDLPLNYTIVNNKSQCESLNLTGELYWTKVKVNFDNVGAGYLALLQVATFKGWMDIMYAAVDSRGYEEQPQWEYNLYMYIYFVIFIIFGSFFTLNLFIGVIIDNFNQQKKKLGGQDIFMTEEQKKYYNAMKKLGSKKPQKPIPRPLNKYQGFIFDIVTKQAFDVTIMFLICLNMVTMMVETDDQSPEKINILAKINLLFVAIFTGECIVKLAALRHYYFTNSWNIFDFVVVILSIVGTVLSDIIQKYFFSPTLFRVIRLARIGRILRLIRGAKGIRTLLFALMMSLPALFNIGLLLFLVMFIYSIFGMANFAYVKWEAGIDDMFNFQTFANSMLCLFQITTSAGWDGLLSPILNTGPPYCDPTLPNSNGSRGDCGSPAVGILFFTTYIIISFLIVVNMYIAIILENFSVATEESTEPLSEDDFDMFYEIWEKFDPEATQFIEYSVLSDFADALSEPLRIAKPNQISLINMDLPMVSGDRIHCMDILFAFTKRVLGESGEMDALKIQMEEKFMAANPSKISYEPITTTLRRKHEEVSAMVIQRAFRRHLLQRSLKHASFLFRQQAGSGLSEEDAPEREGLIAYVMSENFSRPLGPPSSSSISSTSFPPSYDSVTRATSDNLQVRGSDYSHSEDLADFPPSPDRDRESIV

On to `CC(C)(C)NC(=O)CN1CCC(CNC(=O)c2cc(F)cc(Cl)c2)CC1` [AFA-258, reference compound], for which the IC50 on hNav1.5 was greater than 100 µM; with IK in rat DRG, greater than 100 µM; in the experiment on INa in rat DRG, greater than 100 µM; at hCav1.2, greater than 30 µM; in the experiment with hiPSC INa, 21.4 µM; on hCav2.2, greater than 30 µM. Also, the half-inhibitory concentration (IC50) on T current in rat DRG is 200 nM; on hCav3.2 Channel, 195 nM. For the same molecule, in the experiment on IK in rat DRG, the K/T is listed as greater than 513. In addition, the Na/T in the experiment with INa in rat DRG is greater than 513. For the same molecule, the “inhibition of chloroquine-induced itching scratching behavior” value in experiment [1] is “did not produce anti-itching effects”. For the same molecule, at hCav3.2 Channel, the “hCav3.2 Channel % Use Dep. (use dependent inhibition)” value is 17.6%.
On to `CC(C)(C)NC(=O)CN1CCC2(CC1)C[C@H]2NC(=O)C12CC3CC(CC(C3)C1)C2` [AFA-309], for which the IC50 in experiment [2] is greater than 30 µM; on hNav1.5 it was 25.8 µM; in the experiment on IK in rat DRG it was greater than 30 µM; with INa in rat DRG it was greater than 30 µM; on hCav1.2, greater than 30 µM; on hCav2.2, 15.6 µM. In addition, the IC50 on hCav3.2 Channel worked out at 141 nM. Moreover, in the experiment with IK in rat DRG, the K/T is on record as greater than 212. Further, in the experiment with INa in rat DRG, the Na/T was greater than 212. Also, the “hiPSC INa % at 3 μM” value in the experiment on hiPSC INa (at 3 μM) came to 0% at. Moreover, in experiment [3], the “inhibition of histamine-induced itching scratching behavior” value is listed as “preferentially inhibited histamine-induced itching”. Further, on hCav3.2 Channel, the “hCav3.2 Channel % Use Dep. (use dependent inhibition)” value stood at 4.2%.
Regarding `COCC(=O)O[C@]1(CCN(C)CCCc2nc3ccccc3[nH]2)CCc2cc(F)ccc2[C@@H]1C(C)C` [mibefradil], the “more potent inhibition of the T-type than of the L-type Ca2+ current or the voltage-gated Na+ current” value in the experiment on T-type Ca2+ current was 3-10 times.

By IC50 is commonly meant the concentration that inhibits the measured activity by half.
